In patent publication US10065941B2, “Aminotriazine derivative and pharmaceutical composition comprising the same” (Shionogi & Co., Ltd., priority 2013, dated 2018):

Target: human P2X3 receptor (Homo sapiens (Human), UniProt P56373)
Test: Evaluation of human P2X3 receptor inhibitory activity (Test Example 1)
Type: cell-based
Conditions: C6BU-1 cell transfected with human P2X3 receptor gene, FLIPR 384
Protocol: Stably expressing cell line (C6BU-1 cell transfected with human P2X3 receptor gene (GenBank accession number Y07683) was used. The cells were seeded in a 384-well PDL-coated microtiter plate at a concentration of 3000 cells/well and cultured in the medium (8.3% fetal bovine serum, 8.3% horse serum, and 1% antibiotic and antifungal in DMEM) for one day at 37° C. under 5% carbon dioxide atmosphere. The medium was replaced with 4 μM Fluo-3-AM solution (20 mM HEPES, 137 mM NaCl, 2.7 mM KCl, 0.9 mM MgCl2, 5.0 mM CaCl2, 5.6 mM D-glucose, 2.5 mM probenecid, 0.5% BSA, and 0.04% Pluronic F-127, pH 7.5) and incubated at 37° C. under 5% dioxide carbon atmosphere for one hour. The plate was washed with washing buffer (20 mM HEPES, 137 mM NaCl, 2.7 mM KCl, 0.9 mM MgCl2, 5.0 mM CaCl2, 5.6 mM D-glucose, 2.5 mM probenecid, pH7.5), and each well was added with 20 μL of the washing buffer. The plate was placed in High-Throughput Screening System FLIPR 384 (Molecular Device Co.). Measurement of fluorescence intensity by FLIPR 384 was started, and 20 μL of DMSO solutions containing different concentrations of the test compound as prepared by dilution with dilution buffer (20 mM HEPES, 137 mM NaCl, 2.7 mM KCl, 0.9 mM MgCl2, 5.0 mM CaCl2, 5.6 mM D-glucose, 2.5 mM probenecid, 0.1% Pluronic F-127, pH7.5) were dispensed to each well through the built-in automatic dispenser. Five minutes after, 150 nM ATP solution (25 μL) prepared by dilution with the dilution buffer was dispensed through the built-in automatic dispenser, and the measurement of fluorescence intensity was continued for 4 min. For each well, the specific maximum fluorescence intensity was calculated as the ratio of the maximum fluorescence intensity after addition of the ATP solution to the fluorescence intensity at the starting of the measurement. […] The specific maximum fluorescence intensity and IC50 were calculated using Spotfire (Science & Technology Systems, Inc.)

human P2X3 receptor, sequence (P56373 whole entry): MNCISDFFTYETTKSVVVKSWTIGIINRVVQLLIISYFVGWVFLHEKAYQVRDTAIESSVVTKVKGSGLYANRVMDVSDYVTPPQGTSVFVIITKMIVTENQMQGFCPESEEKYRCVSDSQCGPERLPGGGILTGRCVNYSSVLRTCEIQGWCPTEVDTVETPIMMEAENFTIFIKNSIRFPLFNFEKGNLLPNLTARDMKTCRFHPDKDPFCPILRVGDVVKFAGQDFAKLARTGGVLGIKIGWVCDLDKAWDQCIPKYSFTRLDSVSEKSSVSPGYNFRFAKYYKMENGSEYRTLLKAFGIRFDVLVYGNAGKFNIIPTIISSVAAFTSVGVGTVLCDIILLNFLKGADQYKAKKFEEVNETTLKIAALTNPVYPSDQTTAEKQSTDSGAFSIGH

Compound | IC50
Cc1ccc(Cn2c(=O)n([C@H]3C[C@@H](C(=O)O)C3)c(=O)[nH]/c2=N\c2ccc(Oc3ccc(Cl)cn3)cc2)cc1 [Compound I-179] | 6 nM
CCn1c(=O)[nH]/c(=N\c2ccc(Oc3cc(Cl)c(C(=O)O)cn3)cc2)n(Cc2ccc(Cl)cc2)c1=O [Compound R-054] | 26 nM
COC(=O)[C@@H](C)[C@@H](C)n1c(=O)[nH]/c(=N\c2ccc(Oc3ccccn3)cc2)n(Cc2ccc(Cl)cc2)c1=O [Compound I-151] | 10 nM
COCc1cccc(Oc2ccc(/N=c3\[nH]c(=O)n(C[C@H](C)C(=O)OC)c(=O)n3Cc3ccc(Cl)cc3)cc2)n1 [Compound I-249] | 36 nM
C[C@@H](C(=O)O)[C@H](C)n1c(=O)[nH]/c(=N\c2ccc(Oc3cnccn3)c(F)c2)n(Cc2ccc(Cl)cc2)c1=O [Compound R-125] | 7 nM
Cc1nccc(Oc2ccc(/N=c3\[nH]c(=O)n(C[C@H](C)C(=O)O)c(=O)n3Cc3ccc(Cl)cc3)cc2)n1 [Compound R-044] | 10 nM
Cc1ccc(Cn2c(=O)n(C[C@H](C)C(=O)O)c(=O)[nH]/c2=N\c2ccc(Oc3ccccn3)c(F)c2)cc1 [Compound I-210] | 7 nM
COc1ccc(Oc2ccc(/N=c3\[nH]c(=O)n(CC(C)(C)C(=O)O)c(=O)n3Cc3ccc(Cl)cc3)cc2)nn1 [Compound R-190] | 9 nM
O=c1[nH]/c(=N\c2ccc(Oc3ccccn3)cc2)n(Cc2ccc(Cl)cc2)c(=O)n1C[C@H](O)CO [Compound R-235] | 10 nM
COC(=O)[C@@H](C)Cn1c(=O)[nH]/c(=N\c2ccc(Oc3cccc(Cl)n3)cc2)n(Cc2ccc(Cl)cc2)c1=O [Compound I-011] | 18 nM
C[C@@H](Cn1c(=O)[nH]/c(=N\c2ccc(Oc3nc(C(F)(F)F)ns3)cc2)n(Cc2ccc(Cl)cc2)c1=O)C(=O)O [Compound R-145] | 11 nM
Cc1cnc(Oc2ccc(/N=c3\[nH]c(=O)n(CC(C)(C)C(=O)O)c(=O)n3Cc3ccc(Cl)cc3)cc2)s1 [Compound R-153] | 8 nM
COc1nccc(Oc2ccc(/N=c3\[nH]c(=O)n(C[C@H](C)C(=O)O)c(=O)n3Cc3ccc(Cl)cc3)cc2)n1 [Compound R-061] | 7 nM
COC(=O)C(C)(C)Cn1c(=O)[nH]/c(=N\c2ccc(Oc3ccc(C(F)(F)F)nn3)cc2)n(Cc2ccc(Cl)cc2)c1=O [Compound R-029] | 7 nM
Cc1cc(/N=c2\[nH]c(=O)n(C[C@H](C)C(=O)O)c(=O)n2Cc2ccc(Cl)cc2)ccc1Oc1cnccn1 [Compound R-130] | 9 nM
C[C@@H](Cn1c(=O)[nH]/c(=N\c2ccc(Oc3ccccn3)c(F)c2)n(C[C@H]2CC[C@H](C)CC2)c1=O)C(=O)O [Compound I-244] | 8 nM
COc1cc(Oc2ccc(/N=c3\[nH]c(=O)n(C[C@H](C)C(=O)O)c(=O)n3Cc3ccc(Cl)cc3)cc2)ncn1 [Compound R-050] | 14 nM
COC(=O)C(C)(C)Cn1c(=O)[nH]/c(=N\c2ccc(Oc3ccnc(C(=O)O)c3)cc2)n(Cc2ccc(Cl)cc2)c1=O [Compound R-105] | 7 nM
COC(=O)[C@@H](C)Cn1c(=O)[nH]/c(=N\c2ccc(Oc3ncccc3F)cc2)n(Cc2ccc(CF)cc2)c1=O [Compound I-207] | 12 nM
Cc1ccc(Cn2c(=O)n(C[C@@H](C)C(=O)O)c(=O)[nH]/c2=N\c2ccc(Oc3ccccn3)cc2)cc1 [Compound I-148] | 9 nM
O=C(Cn1c(=O)[nH]/c(=N\c2ccc(Oc3ccccn3)cc2)n(Cc2ccc(Cl)cc2)c1=O)NCCO [Compound R-242] | 5 nM
COC(=O)[C@@H](C)Cn1c(=O)[nH]/c(=N\c2ccc(Oc3ccccn3)c(C)c2)n(Cc2ccc(C)cc2)c1=O [Compound I-224] | 6 nM
COC(=O)C(C)(C)Cn1c(=O)[nH]/c(=N\c2ccc(Oc3cc(F)nc(F)c3)cc2)n(Cc2ccc(Cl)cc2)c1=O [Compound R-041] | 11 nM
COc1cc(Oc2ccc(/N=c3\[nH]c(=O)n([C@@H](C)[C@@H](C)C(=O)O)c(=O)n3Cc3ccc(Cl)cc3)cc2)cc(F)n1 [Compound R-177] | 5 nM
